US20150174144A1, “TETRACYCLINE COMPOUNDS FOR TREATING NEURODEGENERATIVE DISORDERS” (PARATEK PHARMACEUTICALS, INC., priority 2012, published 2015)

Columns and labels:
MBP-induced EAE = experiment: MBP-induced Lewis rat EAE; format: in vivo; settings: i.p. daily from day 9
Source text: The inhibitory activity of Compound 1 was characterized in both mouse and rat models of EAE. Mice were immunized s.c. with myelin oligodendrocyte glycoprotein (MOG) peptide 35-55 in CFA and later injected i.v. with Pertussis toxin. Mice were randomized at day 10 and given compound i.p. Compounds were subsequently administered daily and the animals assessed for clinical score. Mice were scored as follows: 0=no disease; 1=limp tail; 2=paralysis of one or both hind limbs; 4=paralysis of both hind- and forelimbs. […] Rats were dosed daily i.p. with compound starting day 9. Rats were scored daily and cumulative scores were determined by adding the average daily scores over the experimental period. […] The average daily scores+/−SEM and the cumulative average scores are shown. Cumulative average scores were determined by adding the average daily scores over the experimental period.

[1] = Peroxynitrite-carbonate radical scavenging assay (DHR probe)
Protocol: Inflammatory conditions are characterized by increasing concentrations of reactive oxygen species. In this study, the ability of Compound 1 to specifically scavenge peroxynitrite-carbonate radicals was determined.
To the first column of a 96-well PCR plate (0.2 mL volume) was added 160 μL of TCWS. One well of the first column would equal one IC50 determination. Typically, test compounds were assayed in duplicate, i.e. two wells of column 1 were filled with each TCWS. To the remaining wells in columns 2-11 was added 80 μL of DWS. Using a multichannel pipettor, column 1 was serially diluted in 2-fold dilutions by removing 80 μL from column 1 and transferring with mixing to column 2. Column 2 was then diluted to column 3 and so on until column 11 where 80 μL of the diluted mixture was removed and discarded. At least 2 wells of row 12 were designated as the 0 test compound control to which 80 μL of DWS was added. One well of row 12 per test compound was designated as the background control to which 80 μL of the TCWS was added.
The plate was covered and incubated for 5 minutes at 37° C. upon which the reaction was initiated by addition of 20 μL of Sin-1 to columns 1-11 using a multichannel pipettor with mixing. The reaction was initiated similarly to the 0 test compound wells of column 12. To the background control wells was added 20 μL of PC buffer. The plate was incubated at 37° C. for 8 minutes (the reaction is linear for 10 minutes) and quenched by addition of 50 μL of AA to all wells with mixing. The plate was placed on ice for 5 minutes. Quenched assay mixtures were stable at room temperature for at least 24 hours.
Each reaction mixture (20 μL) was analyzed for rhodamine 123 product by HPLC using a Phenomenex Luna C18(2) column, 3 um, 4.6×50 mm using an A buffer of water+0.1% TFA and a B buffer of acetonitrile+0.1% TFA and the following gradient method: […]
The absorbance at 280 nm was also recorded to ensure no co-elution of test compound peaks.
Initial examination of the background control samples at the highest test compound concentration were performed to ensure no co-elution of test compound peaks with the product rhodamine 123 at 4 minutes. If co-elution was observed, the compound was not tested until an appropriate HPLC method was developed to separate the product and test compound peaks. The rhodamine 123 AUC was then determined for each test compound concentration and the percent inhibition of rhodamine 123 fluorescence was then determined by the following equation:
% Inhibition=[(AUCo−AUCx)/AUCo]*100
Where AUCo is the AUC of the rhodamine 123 peak at 0 test compound concentration and AUCX is the AUC of the rhodamine 123 peak at each test compound concentration=x.
The standard error of the curve fit for the IC50 was also determined along with the Hill slope. The IC50 determined for uric acid was divided by the IC50 determined for each test compound to generate Uric Acid Equivalents, a measure of the peroxynitrite-carbonate radical scavenging ability relative to uric acid.
Uric Acid Equivalents=[…]

CCc1cc(N(C)C)c2c(c1O)C(=O)C1=C(O)[C@]3(O)C(=O)C(C(N)=O)=C(O)[C@@H](N(C)C)[C@@H]3C[C@@H]1C2 [Compound 1]
Effect on clinical course of EAE (onset, maximum disease severity) (MBP-induced EAE): both delayed the onset and inhibited the maximum disease severity more potently than minocycline | IC50 ([1]; Sin-1, 37° C., 8 minutes, read-out: IC50, inhibition of oxidation of DHR probe (peroxynitrite-carbonate scavenging)): 11 µM | Uric Acid Equivalents ([1]; relative to uric acid): 1.13
